# Source: publication PMC6085107 (Pain, 2018)
# “Also recorded” adds a separate entry of the source.
# Key:
# NMDA-induced cell death = conditions: ref [29]; cited from earlier work
# [1] = system: paclitaxel-induced neuropathic pain; conditions: administered acutely; ref [27]; cited from earlier work
# primary cortical neurons = assay: Glutamate/glycine-induced cell death in primary cortical neurons; format: cell-based, Sprague-Dawley rat; conditions: MK-801 20 μM; n = 3–4; p < 0.01 for each comparison
# [2] = system: mechanical paw withdrawal thresholds, C57BL/6J mice; assay: PSNL-induced mechanical allodynia; format: in vivo
# [3] = system: cold response times, C57BL/6J mice; assay: PSNL-induced cold allodynia; format: in vivo
# p38 MAPK = conditions: rats, cited from earlier work; for p38 MAPK activation in microglia: 5 minutes post treatment, returned to basal levels after 20 minutes, ref [46]
# [4] = system: mechanical paw withdrawal thresholds, C57BL/6J mice; assay: Paclitaxel-induced mechanical allodynia; format: in vivo; conditions: paclitaxel 4 mg/kg i.p. on day 0, 2, 4, 6; starting on day 7 and ongoing on day 15; p < 0.0001
# [5] = system: cold response times, C57BL/6J mice; assay: Paclitaxel-induced cold allodynia; format: in vivo
# [6] = system: p53 phosphorylated at Ser15; assay: Western blot pSer15-p53 in lumbar spinal cord; format: in vivo, mouse; conditions: paclitaxel 4 mg/kg i.p. on day 0, 2, 4, 6, n = 5, p = 0.002
# ERK1/2 = assay: Western blot pERK1/2 in lumbar spinal cord; format: in vivo, mouse; conditions: n = 5
# [7] = target: His-nNOS1-299 and GST-NOS1AP400-506 (Homo sapiens, UniProt P29475); assay: AlphaScreen nNOS-NOS1AP binding disruption; conditions: 1X PBS, BSA (1mg/mL), Tween-20 (0.1%), 0–200 μM, n = 4–9
# Sequence of His-nNOS1-299 and GST-NOS1AP400-506 (P29475 1-299): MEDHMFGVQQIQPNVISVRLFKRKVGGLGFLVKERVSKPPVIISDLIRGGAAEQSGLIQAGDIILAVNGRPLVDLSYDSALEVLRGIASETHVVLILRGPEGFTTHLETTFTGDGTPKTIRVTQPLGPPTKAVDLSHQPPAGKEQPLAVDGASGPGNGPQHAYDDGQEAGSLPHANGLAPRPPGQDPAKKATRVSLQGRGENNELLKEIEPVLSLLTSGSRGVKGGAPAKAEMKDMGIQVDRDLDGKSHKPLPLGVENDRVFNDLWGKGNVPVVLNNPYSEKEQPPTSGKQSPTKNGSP
# [8] = system: NR1 and NR2B; astrocytes and microglia in the lumbar spinal cord; conditions: direct intrathecal injections; ref [2]; cited from earlier work
# nNOS = conditions: ref [6], [29]; cited from earlier work
# His-nNOS_(1-299) = His-nNOS_(1-299) (UniProt P29476-1 1-299); assay: AlphaScreen or HTRF
# Sequence of His-nNOS_(1-299) (P29476 1-299): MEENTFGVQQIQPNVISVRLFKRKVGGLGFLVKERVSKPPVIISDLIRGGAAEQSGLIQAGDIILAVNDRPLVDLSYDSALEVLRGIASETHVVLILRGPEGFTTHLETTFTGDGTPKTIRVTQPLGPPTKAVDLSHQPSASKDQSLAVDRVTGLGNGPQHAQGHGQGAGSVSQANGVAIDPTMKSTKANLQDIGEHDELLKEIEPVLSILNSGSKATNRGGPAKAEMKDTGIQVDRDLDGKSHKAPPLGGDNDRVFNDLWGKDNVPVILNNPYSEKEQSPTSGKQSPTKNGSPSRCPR
molecule,measurement,setting,value
Oc1c(Cl)cc(Cl)cc1CNc1ccc2n[nH]nc2c1 [IC87201],NMDAR-evoked nNOS-NOS1AP association/p38 MAPK-dependent cell death,NMDA-induced cell death,blocked
same,suppression of paclitaxel-induced neuropathic pain,[1],efficacious in suppressing paclitaxel-induced neuropathic pain
C[C@]12N[C@H](Cc3ccccc31)c1ccccc12 [MK-801],cell death vs all other groups exposed to glutamate/glycine,primary cortical neurons,Cell death was lower
same,"sustained mechanical efficacy, day 4–8, repeated dosing, PSNL","[2]; MK-801 5 nmol i.t. once daily, p < 0.001 for each comparison",similarly increased mechanical paw withdrawal thresholds relative to saline (i.t.) or TAT-GESVΔ1 (i.t.) with sustained efficacy
same,"cold sensitivity vs saline, repeated dosing, PSNL","[3]; MK-801 5 nmol i.t. once daily, 8 consecutive days, n = 5–10, p = 0.072",approached significance
"CN[C@H](CC(=O)O)C(=O)O [NMDA, N-methyl-D-aspartate]",spinal p38 MAPK activation,"p38 MAPK; administration directly to the spinal cord, ref [45]",induced p38 MAPK activation
CC(=O)O[C@H]1C(=O)[C@@]2(C)[C@H]([C@H](OC(=O)c3ccccc3)[C@]3(O)C[C@H](OC(=O)[C@H](O)[C@@H](NC(=O)c4ccccc4)c4ccccc4)C(C)=C1C3(C)C)[C@]1(OC(C)=O)CO[C@@H]1C[C@@H]2O [Paclitaxel],mechanical paw withdrawal thresholds after paclitaxel vs vehicle,[4],lowered mechanical paw withdrawal thresholds
same,cold response times after paclitaxel vs vehicle,"[5]; paclitaxel 4 mg/kg i.p. on day 0, 2, 4, 6, starting on day 7 and ongoing on day 15, p < 0.0001",increased cold response times
same,"pSer15-p53 levels, paclitaxel-treated vs vehicle-treated mice",[6],increased lumbar spinal cord levels of pSer15-p53
same,"pERK1/2 levels, paclitaxel-treated vs cremophor-vehicle treated mice","ERK1/2; paclitaxel 4 mg/kg i.p. on day 0, 2, 4, 6, lumbar spinal cord, saline i.t., p < 0.0001",elevated pERK1/2 levels
O=C(O)c1ccc(NCc2cc(Cl)cc(Cl)c2O)cc1O [ZL006],suppression of paclitaxel-induced neuropathic pain,[1],efficacious in suppressing paclitaxel-induced neuropathic pain
GRKKRRQRRR [TAT],disruption of nNOS-NOS1AP binding,[7],did not interfere with the binding between His-nNOS1-299 and GST-NOS1AP400-506
GRKKRRQRRRGESVYAGQW [TAT-cp4GESV],disruption of nNOS-NOS1AP binding,[7],Neither TAT-cp4GESV nor TAT-GESVΔ1 disrupted the interactions; also recorded: Neither TAT-GESVΔ1 nor TAT-cp4GESV disrupted the binding
same,NMDA-induced cell death,NMDA-induced cell death,did not disrupt NMDA activation-induced cell death
GRKKRRQRRRYAGQWGES [TAT-GESVΔ1],disruption of nNOS-NOS1AP binding,[7],Neither TAT-cp4GESV nor TAT-GESVΔ1 disrupted the interactions; also recorded: Neither TAT-GESVΔ1 nor TAT-cp4GESV disrupted the binding
same,cold response times vs saline (i.t.) in paclitaxel-treated mice,"[5]; 10 nmol i.t., n = 6, TAT-GESV p = 0.039, TAT-GESVΔ1 p = 1",did not differ from saline
same,"ipsilateral paw withdrawal thresholds vs saline, PSNL","[2]; 10 nmol i.t., acute, n = 6–10, TAT-GESV p < 0.05, TAT-GESVΔ1 p = 1",did not differ
same,"cold responsiveness, repeated dosing, PSNL","[3]; 10 nmol i.t. once daily, 8 consecutive days, n = 5–10, TAT-GESV vs saline p < 0.05, TAT-GESVΔ1 p > 0.25 for each comparison","did not reliably alter cold responsiveness relative to saline (i.t.), MK-801 (i.t.) or TAT-GESV (i.t.)"
same,"ipsilateral cold-response times vs saline, PSNL","[3]; 10 nmol i.t., acute, n = 6–10, TAT-GESV p < 0.01, TAT-GESVΔ1 p = 1",did not differ
same,"contralateral cold responsiveness, PSNL or sham","[3]; acute i.t., p = 0.39 (dose), p = 0.491 (drug), p = 0.882 (interaction)",neither TAT-GESV nor TAT-GESVΔ1 altered mechanical or cold responsiveness in the paw contralateral to PSNL or sham surgery
same,"pERK1/2 elevation vs saline (i.t.), paclitaxel-treated mice","ERK1/2; 5 nmol i.t., 20 min post injection, p > 0.4","neither TAT-GESV nor TAT-GESVΔ1 (5 nmol, i.t.) altered pERK1/2 elevation"
formalin,p38 MAPK activation in microglia,p38 MAPK,induced p38 MAPK activation in microglia 5 minutes post treatment
substance P,p38 MAPK activation in microglia,p38 MAPK,induced p38 MAPK activation in microglia 5 minutes post treatment
"CCL-1: chemokines C-C motif ligand 1 (protein, UniProt P22362 24-96, looked up) C-C motif chemokine 1: KSMQVPFSRCCFSFAEQEIPLRAILCYRNTSSICSNEGLIFKLKRGKEACALDTVGWVQRHRKMLRHCPSKRK","NR1 and NR2B phosphorylation, glial activation in lumbar spinal cord",[8],induced phosphorylation of NR1 and NR2B and activated astrocytes and microglia in the lumbar spinal cord
"nNOS1-99: nNOS fragment disrupting nNOS-NOS1AP interactions (protein, UniProt P29475 1-99, looked up, fragment) MEDHMFGVQQIQPNVISVRLFKRKVGGLGFLVKERVSKPPVIISDLIRGGAAEQSGLIQAGDIILAVNGRPLVDLSYDSALEVLRGIASETHVVLILRG",enzymatic activity of nNOS or production of NO,nNOS,does not alter the enzymatic activity of nNOS or the production of NO
GRKKRRQRRRYAGQWGESV [L-TAT-GESV],IC50,His-nNOS_(1-299),8.47 µM
